This note sets out measurements from patent US20140336159A1, “METHODS FOR TREATING AND DIAGNOSING RESPIRATORY TRACT INFECTIONS” (PULMATRIX, INC., priority 2011, published 2014).

For test [1], the system named is LPS stimulated peritoneal macrophages (TRPV channels). Put plainly: Cytokine secretion by LPS stimulated macrophages treated with TRPV channel antagonists. Type of test: cell-based, mouse. An excerpt:
The transient receptor potential V (TRPV) family of ion channels is sensitive to osmotic changes and has an intimate relationship with levels of intracellular calcium. […] In order to determine the influence of TRPV channels Ruthenium red, a potent, broad acting TRPV channel antagonist was used. […] The results can be seen in FIG. 20A. […] Following two hours, supernatants were collected for LUMINEX analysis of inflammatory cytokines. […] However, while treatment with SKF96365 did have an effect on LPS stimulated macrophages, it was not as pronounced as that of treatment with ruthenium red.

Another test deals with Influenza A/WSN/33/1. Type of test: cell-based.
In another test the test system is human macrophages. Put plainly: Cytokine secretion by LPS stimulated human monocyte-derived macrophages (normal and COPD-derived). The test is classed as cell-based. Particulars: human macrophages, 10 ng/ml LPS, 2 hours, salts 0-50 mM. How it is done:
Normal and COPD-derived human monocytes were differentiated into macrophage derived monocytes in culture for 7 days. Cells were thawed following storage in liquid nitrogen, and then plated at 2.0-2.5×10^5 cells/well (in 0.2 ml per well) in IMDM cell culture media containing 10% human serum and human GM-CSF (50 ng/ml). On day 7, assays were performed on the cells, using media containing serum but no GM-CSF. Cells were stimulated with 10 ng/ml LPS, and exposed to calcium chloride concentrations of either 10 or 25 mM. Following two hours, supernatants were collected for LUMINEX analysis of IL-8, IL-6, TNF alpha and MIP-1 alpha (FIG. 17A), IL-8 only for COPD (FIG. 17B). […] Calcium chloride reduced LPS induced inflammation in normal and COPD-derived human monocyte-derived macrophages.
(§1) To determine the effects of alternating the cation in the calcium chloride salt, LPS stimulated human or mouse macrophages were exposed to alternative divalent and monovalent cations, magnesium chloride and sodium chloride, as well as an alternative […] anion, calcium lactate. Normal human monocytes were differentiated into macrophage derived monocytes in culture for 7 days as described in Example 16, and perotineal derived mouse macrophages were described in Example 15. Following two hours of incubation with LPS (10 ng/ml) and the appropriate salt concentration, supernatants were collected for LUMINEX protein analysis of inflammatory cytokines.

For test [2], the system named is LPS stimulated peritoneal macrophages. Briefly: Cytokine secretion by LPS stimulated peritoneal macrophages. Particulars: mouse macrophages, 10 ng/ml LPS, 2 hours, salts 0-50 mM. Type of test: cell-based, mouse (C57BL/6).
Source text: Macrophages represent a key component of the innate immune system. Alveolar macrophages are thought to play a central role in disease pathogenesis by secreting pro-inflammatory cytokines and chemokines in the context of both chronic obstructive pulmonary disease (COPD) and cystic fibrosis (CF), two respiratory illnesses involving airway inflammation. It was hypothesized that given the prominent role of alveolar macrophages in LPS induced lung inflammation, it may be possible that Ca^2+-ion containing formulations directly influence the inflammatory response of the macrophage after LPS exposure. In order to test this hypothesis in-vitro, murine peritoneal macrophages were isolated. C57BL/6 female mice were anesthetized using isofluorane inhalant. […] To confirm macrophage phenotype, a cytospin preparation was performed. Cells were cultured in DMEM:F12 overnight. The following day the media was removed and the macrophages were exposed to media supplemented with varying concentrations of LPS (1 ng/ml to 1 microgram/ml), a dose range of supplemental calcium chloride (5 mM to 50 mM) as well as a dose range of calcium chloride in the presence of LPS for 2 hours. After 2 hours in culture the media was collected for analysis of inflammatory cytokines using LUMINEX® Multiplex immunoassays (Invitrogen/Life Technologies, Grand Island, N.Y.) and BIO-PLEX MANAGER™ software (Version 6) (Bio-Rad, Hercules, Calif.). Presto blue or trypan blue assays were used to determine cell viability. […] The media content for 3 representative inflammatory mediators (IL-6, KC and TNF-alpha) cultured under LPS free conditions (unstimulated) as well as cells exposed to 1 ng/ml LPS were analyzed.
as §1

The subject of the next test is neutrophils in the BAL. Briefly: Ozone exposure mouse model. The test is classed as in vivo, mouse (BALB/cJ). Conditions: 100 microgram/kg intranasal. Here is the method: Female wild-type (BALB/cJ) were obtained from The Jackson Laboratory (Bar Harbor. ME) at six weeks of age. Mice were treated with dry powder formulations Leucine (98% leucine, 2% sodium chloride) and Formulation II (75% calcium lactate, 20% leucine, 5% sodium chloride) in a temperature and humidity controlled room (30±5% RH and 20±2° C.) or administered liquid treatments of a p38 MAP kinase inhibitor (100 microgram/kg, Tocris SB203580), and USP-Grade Saline (0.9% NaCl), Cardinal Health via the intranasal route. Naïve mice were not exposed to dry powder treatment. One hour following the end of treatment, conscious mice were placed in a custom plastic exposure chamber (26 cm×16 cm×12 cm, Braintree Scientific) on a heated pad at 37° C. Ozone was generated via corona discharge using OZ-2AD Ozone Generator (Ozone Solutions, Hull, Iowa) and diluted with 2.0 LPM (liter per minute) of USP breathing air (MedTech, Medford, Mass.) to a concentration of 3 ppm. The concentration inside the exposure chamber was sampled continuously at 1.0 LPM using UV-106L Ozone Analyzer (Ozone Solutions, Hull, Iowa). Mice were exposed to ozone for 1 hour. Control mice were placed in static cages and exposed to ambient air for a duration matched to each ozone exposure. Mice were euthanized 4 hours following the end of the ozone or air exposure using a fatal dose of pentobarbital. BAL and cell counts were performed. […]

For `COc1ccc(CCCOC(Cn2ccnc2)c2ccc(OC)cc2)cc1` (centres unmarked) [SKF 96365], in test [1] (5, 20, 50 micromolar, 10 ng/ml LPS, 2 hours), the “KC and IL-6 concentrations” value is on record as “dose dependent decrease”. Further, the TNF alpha concentration result in test [1] (20 and 50 micromolar, 10 ng/ml LPS) is on record as “reduced at the highest two doses”. Moreover, the “decrease in KC concentration” value in test [1] (50 micromolar, 10 ng/ml LPS) is given as 51%. The “KC and TNF alpha reduction” value in test [1] (along with 10 mM calcium chloride, compared to calcium chloride alone) is “small increase”.

As for `CC(=O)N[C@H]1[C@H]([C@H](O)[C@H](O)CO)OC(C(=O)O)=C[C@@H]1N=C(N)N` [Zanamivir, zanamivir], the “viral infection / Influenza titer versus untreated (Air) control” value in the test with Influenza A/WSN/33/1 is given as “reduced viral infection in a dose responsive manner”.

For `CC(O)C(=O)[O-].CC(O)C(=O)[O-].[Ca+2]` (centres unmarked) [calcium lactate], in the test on human macrophages, the “LPS induced cytokine production (IL-8, IL-6)” value was “most profound effect”. The “LPS induced inflammatory mediator secretion (KC, IL-6)” value in test [2] is recorded as “more profound effect”.

Take `[Cl-].[Cl-].[Mg+2]` [magnesium chloride]: the “LPS induced cytokine production (IL-8, IL-6)” value in the test on human macrophages is “of lesser magnitude than calcium lactate but more potent than sodium chloride”. The “LPS induced inflammatory mediator secretion (KC, IL-6)” value in test [2] is given as “some activity”.

On to `C[S+]([O-])c1ccc(-c2nc(-c3ccncc3)c(-c3ccc(F)cc3)[nH]2)cc1` (centres unmarked) [p38 MAP kinase inhibitor], for which the “pulmonary total cell response to ozone exposure” value in the test on neutrophils in the BAL was “significantly inhibited”.

For `N.N.N.N.N.N.N.N.N.N.N.N.N.N.[Cl-].[Cl-].[Cl-].[Cl-].[Cl-].[Cl-].[O-2].[O-2].[Ru+3].[Ru+3].[Ru+4]` [ruthenium red], the “decrease in KC concentration” value was “further enhanced” in test [1] (in the presence of 10 mM calcium chloride, 1 ng/ml LPS) and “more than 50%” in test [1] (ruthenium red alone (1, 5, 10, 20 micromolar), 1 ng/ml LPS, 2 hours).

Take `[Cl-].[Na+]` [sodium chloride, reference compound]: the “LPS induced cytokine production (IL-8, IL-6)” value in the test on human macrophages is “little influence”. Besides, the “LPS induced inflammatory mediator secretion (KC, IL-6)” value in test [2] was “little influence”.
